According to PubChem BioAssay (NCI):
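The concentration for 50% growth inhibition is given as GI50. The concentration for full growth arrest is given as TGI.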

Legend:
Test in all cases: NCI anticancer screen, dose series, 384-well format
[1] = tested on: TK-10 renal
[2] = tested on: SK-MEL-2 melanoma
[3] = tested on: HL-60(TB) leukemia
[4] = tested on: ACHN renal
[5] = tested on: SK-OV-3 ovarian
[6] = tested on: NCI-H522 lung
[7] = tested on: SF-295 CNS
[8] = tested on: NCI-H23 lung
[9] = tested on: K-562 leukemia
[10] = tested on: NCI-H322M lung
[11] = tested on: SF-539 CNS
[12] = tested on: SK-MEL-28 melanoma
[13] = tested on: HCT-15 colon
[14] = tested on: NCI-H226 lung
[15] = tested on: UACC-257 melanoma
[16] = tested on: M14 melanoma
[17] = tested on: SW-620 colon
[18] = tested on: U251 glioblastoma
[19] = tested on: SF-268 CNS
[20] = tested on: IGROV1 ovarian
[21] = tested on: OVCAR-8 ovarian
[22] = tested on: MDA-MB-231 breast
[23] = tested on: UACC-62 melanoma
[24] = tested on: RXF 393 renal
[25] = tested on: CCRF-CEM leukemia
[26] = tested on: DU-145 prostate
[27] = tested on: MDA-MB-468 breast
[28] = tested on: NCI-H460 NSCLC
[29] = tested on: LOX IMVI melanoma
[30] = tested on: SNB-19 CNS
[31] = tested on: MDA-MB-435 melanoma
[32] = tested on: CAKI-1 renal
[33] = tested on: MOLT-4 leukemia
[34] = tested on: OVCAR-5 ovarian
[35] = tested on: MCF7 breast
[36] = tested on: COLO 205 colon
[37] = tested on: MALME-3M melanoma
[38] = tested on: 786-0 renal
[39] = tested on: OVCAR-4 ovarian
[40] = tested on: SR leukemia
[41] = tested on: UO-31 renal
[42] = tested on: PC-3 prostate
[43] = tested on: NCI/ADR-RES ovarian
[44] = tested on: BT-549 breast
[45] = tested on: HT29 colon
[46] = tested on: OVCAR-3 ovarian
[47] = tested on: RPMI-8226 leukemia
[48] = tested on: A498 renal
[49] = tested on: HOP-62 NSCLC
[50] = tested on: A549 NSCLC
[51] = tested on: HOP-92 NSCLC
[52] = tested on: SN12C renal
[53] = tested on: HCC-2998 colon
[54] = tested on: HCT-116 colon
[55] = tested on: T-47D breast
[56] = tested on: KM12 colon
[57] = tested on: SK-MEL-5 melanoma

## O=P1(S)OC[C@H]2O[C@@H]3[C@H](F)[C@@H]2OP(O)(=S)OC[C@H]2O[C@H]([C@H](F)[C@@H]2O1)n1cnc2c(ncnc21)NC/C=C/CNc1ncnc2c1ncn23 (some centres undefined)
[1]
  GI50: > 100 µM
  TGI: > 100 µM
[2]
  GI50: 2.82 µM
  TGI: 52 µM
[3]
  GI50: 0.189 µM
  TGI: 0.4 µM
[4]
  GI50: > 100 µM
  TGI: > 100 µM
[5]
  GI50: 24.3 µM
  TGI: > 100 µM
[6]
  GI50: 7.35 µM
  TGI: 44.2 µM
[7]
  GI50: > 100 µM
  TGI: > 100 µM
[8]
  GI50: > 100 µM
  TGI: > 100 µM
[9]
  GI50: > 100 µM
  TGI: > 100 µM
[10]
  GI50: > 100 µM
  TGI: > 100 µM
[11]
  GI50: 7.46 µM
  TGI: > 100 µM
[12]
  GI50: > 100 µM
  TGI: > 100 µM
[13]
  GI50: > 100 µM
  TGI: > 100 µM
[14]
  GI50: 0.0932 µM
  TGI: 0.361 µM
[15]
  GI50: 0.151 µM
  TGI: 19.3 µM
[16]
  GI50: > 100 µM
  TGI: > 100 µM
[17]
  GI50: > 100 µM
  TGI: > 100 µM
[18]
  GI50: > 100 µM
  TGI: > 100 µM
[19]
  GI50: > 100 µM
  TGI: > 100 µM
[20]
  GI50: > 100 µM
  TGI: > 100 µM
[21]
  GI50: > 100 µM
  TGI: > 100 µM
[22]
  GI50: > 100 µM
  TGI: > 100 µM
[23]
  GI50: > 100 µM
  TGI: > 100 µM
[24]
  GI50: 0.0445 µM
  TGI: 19.7 µM
[25]
  GI50: 39.2 µM
  TGI: > 100 µM
[26]
  GI50: > 100 µM
  TGI: > 100 µM
[27]
  GI50: 2.24 µM
  TGI: 7.62 µM
[28]
  GI50: > 100 µM
  TGI: > 100 µM
[29]
  GI50: > 100 µM
  TGI: > 100 µM
[30]
  GI50: > 100 µM
  TGI: > 100 µM
[31]
  GI50: 2.97 µM
  TGI: 46 µM
[32]
  GI50: > 100 µM
  TGI: > 100 µM
[33]
  GI50: 5.67 µM
  TGI: 20.6 µM
[34]
  GI50: > 100 µM
  TGI: > 100 µM
[35]
  GI50: > 100 µM
  TGI: > 100 µM
[36]
  GI50: 48.6 µM
  TGI: > 100 µM
[37]
  GI50: > 100 µM
  TGI: > 100 µM
[38]
  GI50: > 100 µM
  TGI: > 100 µM
[39]
  GI50: 11.3 µM
  TGI: > 100 µM
[40]
  GI50: 0.0295 µM
  TGI: 0.101 µM
[41]
  GI50: > 100 µM
  TGI: > 100 µM
[42]
  GI50: > 100 µM
  TGI: > 100 µM
[43]
  GI50: > 100 µM
  TGI: > 100 µM
[44]
  GI50: 9.28 µM
  TGI: > 100 µM
[45]
  GI50: 19.2 µM
  TGI: > 100 µM
[46]
  GI50: 4.99 µM
  TGI: 38.8 µM
[47]
  GI50: 22.1 µM
  TGI: > 100 µM
[48]
  GI50: > 100 µM
  TGI: > 100 µM
[49]
  GI50: > 100 µM
  TGI: > 100 µM
[50]
  GI50: > 100 µM
  TGI: > 100 µM
[51]
  GI50: > 100 µM
  TGI: > 100 µM
[52]
  GI50: > 100 µM
  TGI: > 100 µM
[53]
  GI50: > 100 µM
  TGI: > 100 µM
[54]
  GI50: > 100 µM
  TGI: > 100 µM
[55]
  GI50: > 100 µM
  TGI: > 100 µM
[56]
  GI50: 51.2 µM
  TGI: > 100 µM
[57]
  GI50: > 100 µM
  TGI: > 100 µM
